Activity calls are given as the source filed them. No cut-off for these calls is given here. Residues, ends and D or L forms follow the SMILES beside them. *: point of attachment. NHNH2 = NN*
Assay: Malondialdehyde scavenging activity in iron/ascorbate-induced oxidation in PC liposomes at 10 mM by TBARS test
Assay type: functional

SMILES: NNC(=O)[C@@H](N)Cc1c[nH]cn1
- Activity: Active

SMILES: Cc1c(C)c2c(c(C)c1OC(=O)CCC(=O)N[C@@H](Cc1c[nH]cn1)C(=O)NN)CCC(C)(CCCC(C)CCCC(C)CCCC(C)C)O2 (some centres undefined)
- Activity: Active

SMILES: NCCC(=O)N[C@@H](Cc1c[nH]cn1)C(=O)O
- Activity: Active

SMILES: NCC(=O)NN
- Activity: Active

SMILES: CC(C)C[C@H](N)C(=O)N[C@@H](Cc1c[nH]cn1)C(=O)NN (H-Leu-His-NHNH2)
- Activity: Active

SMILES: NNC(=O)[C@H](Cc1c[nH]cn1)NC(=O)OCc1ccccc1
- Activity: Active

SMILES: NNC(=O)[C@H](Cc1c[nH]cn1)NC(=O)[C@@H](N)Cc1ccccc1 (H-Phe-His-NHNH2)
- Activity: Active

SMILES: NNC(=O)CNC(=O)OCc1ccccc1
- Activity: Active

SMILES: CC(C)CCCC(C)[C@H]1CCC2C3CC=C4C[C@@H](OC(=O)N[C@@H](Cc5c[nH]cn5)C(=O)NN)CC[C@]4(C)C3CC[C@@]21C (some centres undefined)
- Activity: Active
